Data from patent publication US7393824B1, “Methods of peptide preparation” (Lytix Biopharma, priority 2000, dated 2008).
Like-named read-outs stand apart in the source and are kept apart here. Residues, ends and D or L forms follow the SMILES beside them.

Tests used:
[1] = test system: Staphylococcus aureus ATCC 25923; assay type: cell-based
Description: (§1) The bacterial strains used were: Escherichia coli ATCC 25922 and Staphylococcus aureus ATCC 25923. All strains were stored at −70° C. The bacteria were grown in 2% Bacto Peptone water (Difco 1807-17-4). All tests were performed with bacteria in mid-logarithmic growth phase. Determination of the minimum inhibitory concentration (MIC) of the peptides for bacterial strains were performed in 1% Bacto Peptone water. A standard microdilution technique with an inoculum of 2×10^6 CFU/ml was used. All assays were performed in triplets. Since the peptides are positively charged and therefore could adhere to the plastic wells, we controlled the actual concentration of the peptides in the solution by HPLC. There was no difference between the concentration of the peptides before or after adding the solution to the plastic wells.

[2] = test system: Escherichia coli ATCC 25922; assay type: cell-based
Description: as §1

[3] = test system: MRC-5 cells (normal fibroblasts); assay: Fibroblast assay (MTT); assay type: cell-based
Description: The cells were washed with PBS and then trypsinated using 2 ml trypsin (for a 80 cm culture flask). After the cells had detached from the wall, usually after ca 3 min. of incubation, 5 ml medium with FBS were added. The cells were resuspended and counted. The cells were then transferred to a centrifugation tube and spinned at 1500 rpm for 10 min. The supernatant was removed and the cells resuspended to a concentration of 1×10^5 cells/ml. 100 ul cells suspension was transferred to each well in a 96-well microtiter plate and incubated for 25 hours to allow the cells to attach. Following the incubation, the medium containing serum was removed by turning the plate upside down against a piece of tissue. 100 ul medium without serum and L-glutamine (assay medium) was added to each well, and then removed as before. This was done to remove any trace of serum. […] The rest of the assay was done as previously described for methA, except that after the 2 hour incubation following MTT addition, 80 ul medium instead of 130 ul were removed.

[4] = test system: Meth A murine sarcoma cell line; assay type: cell-based; details: for IC50: 4 h
Description: Peptide solutions (0.1 ml) were added and the plates incubated at 37° C. for 30 minutes, 4 hours or 24 hours. The cytotoxicity was measured using the MTT method (Mosmann et al., J. Immunol. (1986) 136, 2348-2357).

human red blood cells = assay: Hemolytic assay; assay type: cell-based; details: for EC50: red cells of human
Description: The hemolytic activities of the peptides were determined using fresh human red blood cells. 8 ml blood was taken from a healthy person. 4 ml blood was transferred to a polycarbonate tube containing heparin to a final concentration of 10 U/ml, and the remaining 4 ml blood was transferred to a glass tube containing EDTA with final concentration of 15% EDTA. The erythrocytes were isolated from heparin-treated blood by centrifugation in 1500 rpm for 10 min and washed three times with phosphate-buffered saline (PBS) to remove plasma and buffy coat. The cell pellet was resuspended in PBS to make the final volume of 4 ml. The peptide was diluted to a concentration of 2 mg/ml and 0.1 mg/ml. The peptide was further diluted to the concentrations as stated in Table 1. For each tube PBS was added first, then RBCs and peptide solutions. The hematocrit in the blood treated with EDTA was determined after 30 min with Sysmex K-1000, and the resuspended RBCs were diluted into 10% hematocrit. RBCs in PBS (1%) with and without peptides (Table 18) were incubated in a shaker at […] for 1 hour and then centrifuged at 4000 rpm for 5 min. The supernatant were carefully transferred to new polycarbonate tubes and the absorbance of the supernatant was measured at 540 nm. Baseline hemolysis was hemoglobin released in the presence of PBS, and 100% hemolysis was hemoglobin released in the presence of 0.1% Triton X-100.

S. aureus = details: from the literature; cited from earlier work
human erythrocytes = details: cited from earlier work
E. coli = details: from the literature; cited from earlier work
fibroblasts = details: cited from earlier work

CSCC[C@H](NC(=O)[C@H](CCCNC(=N)N)NC(=O)[C@H](Cc1c[nH]c2ccccc12)NC(=O)[C@H](C)NC(=O)[C@H](Cc1c[nH]c2ccccc12)NC(=O)[C@H](CCCNC(=N)N)NC(=O)[C@H](Cc1ccccc1)NC(=O)[C@H](C)NC(=O)[C@H](CCCCN)NC(=O)[C@H](CCCNC(=N)N)NC(=O)[C@H](C)NC(=O)[C@H](C)NC(=O)[C@@H]1CCCN1)C(=O)N[C@@H](CC(C)C)C(=O)N[C@@H](CCCCN)C(=O)N[C@@H](CCCCN)C(=O)N[C@@H](C)C(=O)N[C@@H](C)C(=O)O [W3→A3, LFB 14-31A2,3,6,10,17F7K16L14R4] (H-PAARKAFRWAWRMLKKAA-OH)
Mic S. Aureus ([1]; ATCC 25923): 4.6 µM
Mic E-coli ([2]; ATCC 25922): 6.9 µM
toxicity to fibroblasts [3]: little toxicity against fibroblasts

CSCC[C@H](NC(=O)[C@H](CCCNC(=N)N)NC(=O)[C@H](C)NC(=O)[C@H](C)NC(=O)[C@H](Cc1c[nH]c2ccccc12)NC(=O)[C@H](CCCNC(=N)N)NC(=O)[C@H](Cc1ccccc1)NC(=O)[C@H](C)NC(=O)[C@H](CCCCN)NC(=O)[C@H](CCCNC(=N)N)NC(=O)[C@H](Cc1c[nH]c2ccccc12)NC(=O)[C@H](C)NC(=O)[C@@H]1CCCN1)C(=O)N[C@@H](CC(C)C)C(=O)N[C@@H](CCCCN)C(=O)N[C@@H](CCCCN)C(=O)N[C@@H](C)C(=O)N[C@@H](C)C(=O)O [W11→A11, LFB 14-31A2,6,10,11,17F7K16L14R4] (H-PAWRKAFRWAARMLKKAA-OH; N-terminus and C-terminus assumed)
fold decrease in activity against Meth A compared to LFB(14-31)m [4]: 1.5 fold
IC50 [4]: 11 µM
Mic S. Aureus ([1]; ATCC 25923): >1.2 µM
Mic E-coli ([2]; ATCC 25922): 4.6 µM

CSCC[C@H](NC(=O)[C@H](CCCNC(=N)N)NC(=O)[C@H](Cc1c[nH]c2ccccc12)NC(=O)[C@H](C)NC(=O)[C@H](C)NC(=O)[C@H](CCCNC(=N)N)NC(=O)[C@H](Cc1ccccc1)NC(=O)[C@H](C)NC(=O)[C@H](CCCCN)NC(=O)[C@H](CCCNC(=N)N)NC(=O)[C@H](Cc1c[nH]c2ccccc12)NC(=O)[C@H](C)NC(=O)[C@@H]1CCCN1)C(=O)N[C@@H](CC(C)C)C(=O)N[C@@H](CCCCN)C(=O)N[C@@H](CCCCN)C(=O)N[C@@H](C)C(=O)N[C@@H](C)C(=O)O [W9→A9, LFB 14-31A2,6,9,10,17F7K16L14R4] (H-PAWRKAFRAAWRMLKKAA-OH; N-terminus and C-terminus assumed)
Mic S. Aureus ([1]; ATCC 25923): 2.4 µM
Mic E-coli ([2]; ATCC 25922): 4.6 µM

CSCC[C@H](NC(=O)[C@H](CCCNC(=N)N)NC(=O)[C@H](C)NC(=O)[C@H](C)NC(=O)[C@H](C)NC(=O)[C@H](CCCNC(=N)N)NC(=O)[C@H](Cc1ccccc1)NC(=O)[C@H](C)NC(=O)[C@H](CCCCN)NC(=O)[C@H](CCCNC(=N)N)NC(=O)[C@H](Cc1c[nH]c2ccccc12)NC(=O)[C@H](C)NC(=O)[C@@H]1CCCN1)C(=O)N[C@@H](CC(C)C)C(=O)N[C@@H](CCCCN)C(=O)N[C@@H](CCCCN)C(=O)N[C@@H](C)C(=O)N[C@@H](C)C(=O)O [W9,11→A9,11, LFB 14-31A2,6,9,10,11,17F7K16L14R4] (H-PAWRKAFRAAARMLKKAA-OH)
IC50 [4]: 110 µM
Mic S. Aureus ([1]; ATCC 25923): 14.7 µM
Mic E-coli ([2]; ATCC 25922): 14.7 µM
IC50 [3]: > 489 µM
toxicity to fibroblasts [3]: no cytotoxic activity
cytotoxic / hemolytic activity against red blood cells (human red blood cells): no cytotoxic activity
EC50 (human red blood cells): > 489 µM

(KAAKKAA)3
MIC against S. aureus (S. aureus): 8 µM
activity against human erythrocytes (human erythrocytes): no measurable activity
MIC against E. coli (E. coli): 8 µM
activity against fibroblasts (fibroblasts): no measurable activity

CC[C@H](C)[C@H](NC(=O)[C@H](C)NC(=O)[C@@H](NC(=O)[C@H](CCCNC(=N)N)NC(=O)[C@H](Cc1ccccc1)NC(=O)[C@H](C)NC(=O)[C@H](CCCCN)NC(=O)[C@H](CCCNC(=N)N)NC(=O)[C@H](Cc1c[nH]c2ccccc12)NC(=O)[C@H](C)NC(=O)[C@@H]1CCCN1)[C@@H](C)CC)C(=O)N[C@@H](CCCNC(=N)N)C(=O)N[C@@H](CCSC)C(=O)N[C@@H](CC(C)C)C(=O)N[C@@H](CCCCN)C(=O)N[C@@H](CCCCN)C(=O)N[C@@H](C)C(=O)N[C@@H](C)C(=O)O [W9,11→I9,11] (H-PAWRKAFRIAIRMLKKAA-OH; N-terminus and C-terminus assumed)
IC50 [4]: 22 µM
Mic S. Aureus ([1]; ATCC 25923): 19 µM
Mic E-coli ([2]; ATCC 25922): 35 µM
IC50 [3]: 26 µM
EC50 (human red blood cells): 284 µM

CC[C@H](C)[C@H](NC(=O)[C@H](C)NC(=O)[C@@H]1CCCN1)C(=O)N[C@@H](CCCNC(=N)N)C(=O)N[C@@H](CCCCN)C(=O)N[C@@H](C)C(=O)N[C@@H](Cc1ccccc1)C(=O)N[C@@H](CCCNC(=N)N)C(=O)N[C@@H](Cc1c[nH]c2ccccc12)C(=O)N[C@@H](C)C(=O)N[C@@H](Cc1c[nH]c2ccccc12)C(=O)N[C@@H](CCCNC(=N)N)C(=O)N[C@@H](CCSC)C(=O)N[C@@H](CC(C)C)C(=O)N[C@@H](CCCCN)C(=O)N[C@@H](CCCCN)C(=O)N[C@@H](C)C(=O)N[C@@H](C)C(=O)O [W3→I3] (H-PAIRKAFRWAWRMLKKAA-OH; N-terminus and C-terminus assumed)
Mic S. Aureus ([1]; Table 2): 2/4
Mic E-coli ([2]; Table 2): 2/4
